System: transgenic Arabidopsis thaliana T1 plants
Experiment: Detection of the herbicide tolerance of the transgenic Arabidopsis thaliana plants
Assay type: in vivo
Conditions: for The grade of pesticide damage/plant: 0 / The grade of pesticide damage/plant: 1 / The grade of pesticide damage/plant: 2 / The grade of pesticide damage/plant: 3: 7 DAT
Description: The transformed Arabidopsis thaliana T1 plants were initially selected using glufosinate herbicide. The Arabidopsis thaliana T1 plants (PPOA-01) into which the PPOA-01 nucleotide sequence was introduced, the Arabidopsis thaliana T1 plants (PPOB-01) into which the PPOB-01 nucleotide sequence was introduced, the Arabidopsis thaliana T1 plants (PPOC-01) into which the PPOC-01 nucleotide sequence was introduced, the Arabidopsis thaliana T1 plants (PPOD-01) into which the PPOD-01 nucleotide sequence was introduced, the Arabidopsis thaliana T1 plants (PPOE-01) into which the PPOE-01 nucleotide sequence was introduced, the Arabidopsis thaliana T1 plants (PPOF-01) into which the PPOF-01 nucleotide sequence was introduced, the Arabidopsis thaliana T1 plants (PPO-AP-01) into which the PPO-AP-01 nucleotide sequence was introduced, and the Arabidopsis thaliana T1 plants (control vector) into which the control vector was introduced, the wild-type Arabidopsis thaliana plants (CK) (with 24 plants being included in each genotype) (18 days after sowing) were sprayed with saflufenacil at three concentrations (25 g ai/ha (one-fold field concentration, 1×), 100 g ai/ha (four-fold field concentration, 4×), and 0 g ai/ha (water, 0×)), oxyfluorfen at three concentrations (180 g ai/ha (one-fold field concentration, 1×), 720 g ai/ha (four-fold field concentration, 4×), and 0 g ai/ha (water, 0×)), and flumioxazin at three concentrations (60 g ai/ha (one-fold field concentration, 1×), 240 g ai/ha (four-fold field concentration, 4×), and 0 g ai/ha (water, 0×) to determine the tolerance of Arabidopsis thaliana to the herbicides. After 7 days of spraying (7 DAT), the damage level of each plant caused by the herbicide was evaluated according to the average of the damage levels (%) of plants (the average of the damage levels (%) of plants=the injured leaf area/the total leaf area×100%), i.e., the grade of pesticide damage: grade 0 means that the growth status of plants is essentially consistent with those sprayed with the blank solvent (water); grade 1 means that the average of the damage levels of plants is less than 10%; grade 2 means that the average of the damage levels of plants is greater than 10%; and grade 3 means that the average of the damage levels of plants is 100%. The plants having a growth status falling within grades 0 and 1 are classified as highly resistant plants; those having a growth status falling within grade 2 are classified as poorly resistant plants; and those having a growth status falling within grade 3 are classified as non-resistant plants.

[1] = genotype Control vector, 60 g ai/ha
[2] = genotype Control vector, 240 g ai/ha
[3] = genotype PPO-AP-01, 240 g ai/ha

C#CCN1C(=O)COc2cc(F)c(N3C(=O)C4=C(CCCC4)C3=O)cc21 [flumioxazin, 2-[7-fluoro-3,4-dihydro-3-oxo-4-(2-propynyl)-2H-1,4-benzoxazin-6-yl]-4,5,6,7-tetrahydro-1H-isoindole-1,3(2H)-dione]
effective dose distinguishing sensitive plants from plants having an average level of resistance (Arabidopsis thaliana): 60 g ai/ha
The grade of pesticide damage/plant: 0 (genotype CK, 60 g ai/ha): 0 plant
The grade of pesticide damage/plant: 1 (genotype CK, 60 g ai/ha): 0 plant
The grade of pesticide damage/plant: 2 (genotype CK, 60 g ai/ha): 0 plant
The grade of pesticide damage/plant: 3 (genotype CK, 60 g ai/ha): 24 plant
The grade of pesticide damage/plant: 0 (genotype CK, 240 g ai/ha): 0 plant
The grade of pesticide damage/plant: 1 (genotype CK, 240 g ai/ha): 0 plant
The grade of pesticide damage/plant: 2 (genotype CK, 240 g ai/ha): 0 plant
The grade of pesticide damage/plant: 3 (genotype CK, 240 g ai/ha): 24 plant
The grade of pesticide damage/plant: 0 [1]: 0 plant
The grade of pesticide damage/plant: 1 [1]: 0 plant
The grade of pesticide damage/plant: 2 [1]: 0 plant
The grade of pesticide damage/plant: 3 [1]: 24 plant
The grade of pesticide damage/plant: 0 [2]: 0 plant
The grade of pesticide damage/plant: 1 [2]: 0 plant
The grade of pesticide damage/plant: 2 [2]: 0 plant
The grade of pesticide damage/plant: 3 [2]: 24 plant
The grade of pesticide damage/plant: 0 (genotype PPO-AP-01, 60 g ai/ha): 0 plant
The grade of pesticide damage/plant: 1 (genotype PPO-AP-01, 60 g ai/ha): 0 plant
The grade of pesticide damage/plant: 2 (genotype PPO-AP-01, 60 g ai/ha): 0 plant
The grade of pesticide damage/plant: 3 (genotype PPO-AP-01, 60 g ai/ha): 24 plant
The grade of pesticide damage/plant: 0 [3]: 0 plant
The grade of pesticide damage/plant: 1 [3]: 0 plant
The grade of pesticide damage/plant: 2 [3]: 0 plant
The grade of pesticide damage/plant: 3 [3]: 24 plant
tolerance to the herbicide (in words) (genotype PPO-AP-01, four-fold field concentration): no tolerance
tolerance to the herbicide (in words) (genotype PPO-AP-01, one-fold field concentration): no tolerance
The grade of pesticide damage/plant: 0 (genotype PPOA-01, 60 g ai/ha): 24 plant
The grade of pesticide damage/plant: 1 (genotype PPOA-01, 60 g ai/ha): 0 plant
The grade of pesticide damage/plant: 2 (genotype PPOA-01, 60 g ai/ha): 0 plant
The grade of pesticide damage/plant: 3 (genotype PPOA-01, 60 g ai/ha): 0 plant
The grade of pesticide damage/plant: 0 (genotype PPOA-01, 240 g ai/ha): 18 plant
The grade of pesticide damage/plant: 1 (genotype PPOA-01, 240 g ai/ha): 6 plant
The grade of pesticide damage/plant: 2 (genotype PPOA-01, 240 g ai/ha): 0 plant
The grade of pesticide damage/plant: 3 (genotype PPOA-01, 240 g ai/ha): 0 plant
The grade of pesticide damage/plant: 0 (genotype PPOB-01, 60 g ai/ha): 24 plant
The grade of pesticide damage/plant: 1 (genotype PPOB-01, 60 g ai/ha): 0 plant
The grade of pesticide damage/plant: 2 (genotype PPOB-01, 60 g ai/ha): 0 plant
The grade of pesticide damage/plant: 3 (genotype PPOB-01, 60 g ai/ha): 0 plant
The grade of pesticide damage/plant: 0 (genotype PPOB-01, 240 g ai/ha): 18 plant
The grade of pesticide damage/plant: 1 (genotype PPOB-01, 240 g ai/ha): 6 plant
The grade of pesticide damage/plant: 2 (genotype PPOB-01, 240 g ai/ha): 0 plant
The grade of pesticide damage/plant: 3 (genotype PPOB-01, 240 g ai/ha): 0 plant
The grade of pesticide damage/plant: 0 (genotype PPOC-01, 60 g ai/ha): 24 plant
The grade of pesticide damage/plant: 1 (genotype PPOC-01, 60 g ai/ha): 0 plant
The grade of pesticide damage/plant: 2 (genotype PPOC-01, 60 g ai/ha): 0 plant
The grade of pesticide damage/plant: 3 (genotype PPOC-01, 60 g ai/ha): 0 plant
The grade of pesticide damage/plant: 0 (genotype PPOC-01, 240 g ai/ha): 24 plant
The grade of pesticide damage/plant: 1 (genotype PPOC-01, 240 g ai/ha): 0 plant
The grade of pesticide damage/plant: 2 (genotype PPOC-01, 240 g ai/ha): 0 plant
The grade of pesticide damage/plant: 3 (genotype PPOC-01, 240 g ai/ha): 0 plant
The grade of pesticide damage/plant: 0 (genotype PPOD-01, 60 g ai/ha): 24 plant
The grade of pesticide damage/plant: 1 (genotype PPOD-01, 60 g ai/ha): 0 plant
The grade of pesticide damage/plant: 2 (genotype PPOD-01, 60 g ai/ha): 0 plant
The grade of pesticide damage/plant: 3 (genotype PPOD-01, 60 g ai/ha): 0 plant
The grade of pesticide damage/plant: 0 (genotype PPOD-01, 240 g ai/ha): 24 plant
The grade of pesticide damage/plant: 1 (genotype PPOD-01, 240 g ai/ha): 0 plant
The grade of pesticide damage/plant: 2 (genotype PPOD-01, 240 g ai/ha): 0 plant
The grade of pesticide damage/plant: 3 (genotype PPOD-01, 240 g ai/ha): 0 plant
The grade of pesticide damage/plant: 0 (genotype PPOE-01, 60 g ai/ha): 22 plant
The grade of pesticide damage/plant: 1 (genotype PPOE-01, 60 g ai/ha): 2 plant
The grade of pesticide damage/plant: 2 (genotype PPOE-01, 60 g ai/ha): 0 plant
The grade of pesticide damage/plant: 3 (genotype PPOE-01, 60 g ai/ha): 0 plant
The grade of pesticide damage/plant: 0 (genotype PPOE-01, 240 g ai/ha): 23 plant
The grade of pesticide damage/plant: 1 (genotype PPOE-01, 240 g ai/ha): 0 plant
The grade of pesticide damage/plant: 2 (genotype PPOE-01, 240 g ai/ha): 0 plant
The grade of pesticide damage/plant: 3 (genotype PPOE-01, 240 g ai/ha): 1 plant
number of non-resistant plants (genotype PPOE-01, four-fold field concentration): 1 plant
tolerance to the herbicide (in words) (genotype PPOE-01, the other plants, four-fold field concentration): high-resistant tolerance
The grade of pesticide damage/plant: 0 (genotype PPOF-01, 60 g ai/ha): 24 plant
The grade of pesticide damage/plant: 1 (genotype PPOF-01, 60 g ai/ha): 0 plant
The grade of pesticide damage/plant: 2 (genotype PPOF-01, 60 g ai/ha): 0 plant
The grade of pesticide damage/plant: 3 (genotype PPOF-01, 60 g ai/ha): 0 plant
The grade of pesticide damage/plant: 0 (genotype PPOF-01, 240 g ai/ha): 18 plant
The grade of pesticide damage/plant: 1 (genotype PPOF-01, 240 g ai/ha): 6 plant
The grade of pesticide damage/plant: 2 (genotype PPOF-01, 240 g ai/ha): 0 plant
The grade of pesticide damage/plant: 3 (genotype PPOF-01, 240 g ai/ha): 0 plant
tolerance to the herbicide (in words) (genotypes PPOA-01 to PPOD-01 and PPOF-01, four-fold field concentration): high-resistant tolerance
tolerance to the herbicide (in words) (genotypes PPOA-01 to PPOF-01, one-fold field concentration): high-resistant tolerance

From patent US20250275540A1, “USE OF PROTOPORPHYRINOGEN OXIDASE” (BEIJING DABEINONG BIOTECHNOLOGY CO., LTD., priority 2022, published 2025)
